Starred links: 1 amine or outer side, 2 acyl side, 3 side chain; linkers in the order of their positions; H or OH if unused. Positions of bridges follow the written chain, without caps; N, C: chain ends. Non-standard residues stand in square brackets, D forms with d. Residues, ends and D or L forms follow the SMILES beside them. Trp(5-F) = N[C@@H](Cc1c[nH]c2ccc(F)cc12)C(=O)O; NMePhe(4-F) = CN[C@@H](Cc1ccc(F)cc1)C(=O)O; mXylylene = c1cc(C[*:1])cc(C[*:2])c1; NMeL = CN[C@@H](CC(C)C)C(=O)O; αMeP = C[C@@]1(C(=O)O)CCCN1; NMeS = CN[C@@H](CO)C(=O)O; Orn = NCCC[C@H](N)C(=O)O; Nva = CCC[C@H](N)C(=O)O; Ac3c = NC1(C(=O)O)CC1; Mpa = O=C(O)CCS; Sar = CNCC(=O)O

The target in this assay is human PCSK9 / human LDLR EGFa domain interaction (Homo sapiens (Human), UniProt Q8NBP7). Kind of assay: TR-FRET assay of inhibition of the PCSK9-LDLR protein-protein interaction. The conditions noted are these: TR-FRET, 20 nM human PCSK9, 20 nM human LDLR EGFa domain, 2 hours room temperature; read-out: IC50. It counts as binding. The procedure: A time-resolved fluorescence resonance energy (TR-FRET) assay was used to measure inhibition of the PCSK9-LDLR protein-protein interaction. Briefly, 20 nM avitag-biotinylated human PCSK9 was incubated with 20 nM his-tagged human LDLR EGFa domain in the presence of 5 nM LANCE Ulight Streptavidin (Perkin Elmer) and 5 nM europium-Anti-6×His (Perkin Elmer) for 2 hours covered at room temperature in buffer containing 50 mM HEPES, 150 mM NaCl, 5 mM CaCl2), 0.01% BSA and 0.01% Surfactant P20. Compounds were tested in dose-response and concentrations giving half-maximal inhibition calculated using a 4-parameter fit equation.
human PCSK9 / human LDLR EGFa domain interaction, sequence (Q8NBP7 153-692): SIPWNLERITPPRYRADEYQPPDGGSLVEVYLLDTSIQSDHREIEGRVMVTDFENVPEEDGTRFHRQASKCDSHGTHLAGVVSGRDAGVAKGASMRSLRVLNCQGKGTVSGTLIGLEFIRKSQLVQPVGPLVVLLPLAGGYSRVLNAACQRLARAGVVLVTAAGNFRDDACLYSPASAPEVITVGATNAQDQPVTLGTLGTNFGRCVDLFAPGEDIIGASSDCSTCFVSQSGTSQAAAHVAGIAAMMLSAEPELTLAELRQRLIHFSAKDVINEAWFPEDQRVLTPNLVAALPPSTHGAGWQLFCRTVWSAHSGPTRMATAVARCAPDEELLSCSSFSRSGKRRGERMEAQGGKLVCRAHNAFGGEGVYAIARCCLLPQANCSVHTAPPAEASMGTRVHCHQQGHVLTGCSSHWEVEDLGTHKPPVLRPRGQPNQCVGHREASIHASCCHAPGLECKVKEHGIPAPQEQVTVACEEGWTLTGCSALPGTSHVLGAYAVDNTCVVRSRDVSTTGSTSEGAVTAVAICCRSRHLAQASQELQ
human PCSK9 / human LDLR EGFa domain interaction, sequence (Q8NBP7 31-152 partner): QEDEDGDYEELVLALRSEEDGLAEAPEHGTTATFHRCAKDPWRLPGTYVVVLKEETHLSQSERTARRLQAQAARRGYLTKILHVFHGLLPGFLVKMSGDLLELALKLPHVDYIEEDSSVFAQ
As for `COc1ccc(C[C@@H]2NC(=O)[C@@H](CC(C)C)NC(=O)[C@H](CC(C)C)NC(=O)CCSCc3cccc(c3)CSC[C@@H](C(N)=O)NC(=O)[C@]3(C)CCCN3C(=O)[C@H](Cc3ccc(OC)cc3)NC(=O)[C@H]([C@@H](C)OC)NC(=O)[C@H](CC(C)C)N(C)C(=O)[C@H](Cc3ccc(OC)cc3)NC2=O)cc1` [Compound 037] ([Mpa]L[dL]Y(Me)Y(Me)[NMeL]T(Me)Y(Me)[αMeP]C-NH2; linker 1-10 via mXylylene), the IC50 – broadly, the concentration that inhibits the measured activity by half – is 0.1 to 1 µM.
On to `CCC[C@H](NC(C)=O)C(=O)N[C@@H](Cc1c[nH]cn1)C(=O)N(C)[C@@H](Cc1ccc(F)cc1)C(=O)N[C@H]1CSCc2cccc(c2)CSC[C@@H](C(N)=O)NC(=O)[C@@H]2CCCN2C(=O)[C@H](Cc2ccc(O)cc2)NC(=O)[C@H](Cc2c[nH]cn2)NC(=O)[C@H](CC(=O)O)NC(=O)[C@H](Cc2c[nH]c3ccc(F)cc23)NC(=O)[C@H](Cc2c[nH]c3ccc(F)cc23)NC(=O)CNC(=O)[C@H](CCCCN)NC1=O` [Compound 143] (Ac-[Nva]H[NMePhe(4-F)]CKG[Trp(5-F)][Trp(5-F)]DHYPC-NH2; linker 4-13 via mXylylene), for which the IC50 lay in the range of 21 to 50 µM.
As for `CCC[C@H](NC(C)=O)C(=O)N[C@H](Cc1c[nH]cn1)C(=O)N(C)[C@@H](Cc1ccc(F)cc1)C(=O)N[C@H]1CSCc2cccc(c2)CSC[C@@H](C(N)=O)NC(=O)[C@@H]2CCCN2C(=O)[C@H](Cc2ccc(O)cc2)NC(=O)[C@H](Cc2c[nH]cn2)NC(=O)[C@H](CC(=O)O)NC(=O)[C@H](Cc2c[nH]c3ccc(F)cc23)NC(=O)[C@H](Cc2c[nH]c3ccc(F)cc23)NC(=O)CNC(=O)[C@H](CCCCN)NC1=O` [Compound 144] (Ac-[Nva][dH][NMePhe(4-F)]CKG[Trp(5-F)][Trp(5-F)]DHYPC-NH2; linker 4-13 via mXylylene), the IC50 was 1 to 12.1 µM.
Turning to `CCC[C@H](NC(C)=O)C(=O)N(C)[C@@H](CO)C(=O)N[C@@H](CCCCN)C(=O)N[C@H]1CSCc2cccc(c2)CSC[C@@H](C(N)=O)NC(=O)[C@@H]2CCCN2C(=O)[C@H](Cc2ccc(O)cc2)NC(=O)[C@H](Cc2c[nH]cn2)NC(=O)[C@H](CC(=O)O)NC(=O)[C@H](Cc2c[nH]c3ccc(F)cc23)NC(=O)[C@H](Cc2c[nH]c3ccc(F)cc23)NC(=O)CNC(=O)[C@H](CCCCN)NC1=O` [Compound 145] (Ac-[Nva][NMeS]KCKG[Trp(5-F)][Trp(5-F)]DHYPC-NH2; linker 4-13 via mXylylene), the IC50 was 1 to 12.1 µM.
On to `CC(=O)N[C@@H](Cc1cnc[nH]1)C(=O)N(C)[C@@H](Cc1ccc(F)cc1)C(=O)N[C@H]1CSCc2cccc(c2)CSC[C@@H](C(N)=O)NC(=O)[C@@H]2CCCN2C(=O)[C@H](Cc2ccc(O)cc2)NC(=O)[C@H](Cc2cnc[nH]2)NC(=O)[C@H](CC(=O)O)NC(=O)[C@H](Cc2c[nH]c3ccc(F)cc23)NC(=O)[C@H](Cc2c[nH]c3ccc(F)cc23)NC(=O)CNC(=O)[C@H](CCCCN)NC1=O` [Compound 146] (Ac-H[NMePhe(4-F)]CKG[Trp(5-F)][Trp(5-F)]DHYPC-NH2; linker 3-12 via mXylylene), for which the half-maximal inhibitory concentration (IC50) was in the range of 0.0001 to 0.1 µM.
For `CC(=O)N(C)[C@@H](Cc1ccc(F)cc1)C(=O)N[C@H]1CSCc2cccc(c2)CSC[C@@H](C(N)=O)NC(=O)[C@@H]2CCCN2C(=O)[C@H](Cc2ccc(O)cc2)NC(=O)[C@H](Cc2cnc[nH]2)NC(=O)[C@H](CC(=O)O)NC(=O)[C@H](Cc2c[nH]c3ccc(F)cc23)NC(=O)[C@H](Cc2c[nH]c3ccc(F)cc23)NC(=O)CNC(=O)[C@H](CCCCN)NC1=O` [Compound 147] (Ac-[NMePhe(4-F)]CKG[Trp(5-F)][Trp(5-F)]DHYPC-NH2; linker 2-11 via mXylylene), the IC50 was in the range of 0.1 to 1 µM.
Take `CC(=O)N[C@H]1CSCc2cccc(c2)CSC[C@@H](C(N)=O)NC(=O)[C@@H]2CCCN2C(=O)[C@H](Cc2ccc(O)cc2)NC(=O)[C@H](Cc2cnc[nH]2)NC(=O)[C@H](CC(=O)O)NC(=O)[C@H](Cc2c[nH]c3ccc(F)cc23)NC(=O)[C@H](Cc2c[nH]c3ccc(F)cc23)NC(=O)CNC(=O)[C@H](CCCCN)NC1=O` [Compound 148] (Ac-CKG[Trp(5-F)][Trp(5-F)]DHYPC-NH2; linker 1-10 via mXylylene): the IC50 is 0.1 to 1 µM.
Turning to `NCCCC[C@@H]1NC(=O)CCCCn2cc(nn2)CCC[C@@H](C(N)=O)NC(=O)[C@@H]2CCCN2C(=O)[C@H](Cc2ccc(O)cc2)NC(=O)[C@H](Cc2c[nH]cn2)NC(=O)[C@H](CC(=O)O)NC(=O)[C@H](Cc2c[nH]c3ccc(F)cc23)NC(=O)[C@H](Cc2c[nH]c3ccc(F)cc23)NC(=O)CNC1=O` [Compound 153], the IC50 was in the range of 1 to 12.1 µM.
With `NCCCC[C@@H]1NC(=O)CCCCCn2cc(nn2)CCC[C@@H](C(N)=O)NC(=O)[C@@H]2CCCN2C(=O)[C@H](Cc2ccc(O)cc2)NC(=O)[C@H](Cc2c[nH]cn2)NC(=O)[C@H](CC(=O)O)NC(=O)[C@H](Cc2c[nH]c3ccc(F)cc23)NC(=O)[C@H](Cc2c[nH]c3ccc(F)cc23)NC(=O)CNC1=O` [Compound 154], the half-maximal inhibitory concentration (IC50) is 1 to 12.1 µM.
Consider `C[C@@H]1NC(=O)[C@H](CCCCN)NC(=O)CCSCc2cccc(c2)CSC[C@@H](C(N)=O)NC(=O)[C@@H]2CCCN2C(=O)[C@H](Cc2ccc(O)cc2)NC(=O)[C@H](Cc2cnc[nH]2)NC(=O)[C@H](CC(=O)O)NC(=O)[C@H](Cc2c[nH]c3ccc(F)cc23)NC(=O)[C@H](Cc2c[nH]c3ccc(F)cc23)NC1=O` [Compound 156] ([Mpa]KA[Trp(5-F)][Trp(5-F)]DHYPC-NH2; linker 1-10 via mXylylene), for which the 50% inhibitory concentration (IC50) lay within 1 to 12.1 µM.
`NCCCC[C@@H]1NC(=O)CCSCc2cccc(c2)CSC[C@@H](C(N)=O)NC(=O)[C@@H]2CCCN2C(=O)[C@H](Cc2ccc(O)cc2)NC(=O)[C@@H](Cc2cnc[nH]2)NC(=O)[C@H](CC(=O)O)NC(=O)[C@H](Cc2c[nH]c3ccc(F)cc23)NC(=O)[C@H](Cc2c[nH]c3ccc(F)cc23)NC(=O)CNC1=O` [Compound 163] ([Mpa]KG[Trp(5-F)][Trp(5-F)]D[dH]YPC-NH2; linker 1-10 via mXylylene): the IC50 is 21 to 50 µM.
Take `NCCCC[C@@H]1NC(=O)CCSCc2cccc(c2)CSC[C@@H](C(N)=O)NC(=O)[C@@H]2CCCN2C(=O)[C@@H](Cc2ccc(O)cc2)NC(=O)[C@H](Cc2cnc[nH]2)NC(=O)[C@H](CC(=O)O)NC(=O)[C@H](Cc2c[nH]c3ccc(F)cc23)NC(=O)[C@H](Cc2c[nH]c3ccc(F)cc23)NC(=O)CNC1=O` [Compound 164] ([Mpa]KG[Trp(5-F)][Trp(5-F)]DH[dY]PC-NH2; linker 1-10 via mXylylene): the half-inhibitory concentration (IC50) lay in the range of 21 to 50 µM.
On to `CC(=O)N[C@H]1CSCc2cccc(c2)CSC[C@@H](C(N)=O)NC(=O)[C@@H]2CCCN2C(=O)[C@H](Cc2ccc(O)cc2)NC(=O)[C@H](Cc2c[nH]cn2)NC(=O)[C@H](CC(=O)O)NC(=O)[C@H](Cc2c[nH]c3ccc(F)cc23)NC(=O)[C@H](Cc2c[nH]c3ccccc23)NC(=O)CNC(=O)[C@H](CCCCN)NC1=O` [Compound 176] (Ac-CKGW[Trp(5-F)]DHYPC-NH2; linker 1-10 via mXylylene), for which the concentration for half-maximal inhibition (IC50) is 21 to 50 µM.
`CC(=O)N[C@H]1CSCc2cccc(c2)CSC[C@@H](C(N)=O)NC(=O)[C@@H]2CCCN2C(=O)[C@H](Cc2ccc(O)cc2)NC(=O)[C@H](Cc2cnc[nH]2)NC(=O)[C@H](CC(=O)O)NC(=O)[C@H](Cc2c[nH]c3ccccc23)NC(=O)[C@H](Cc2c[nH]c3ccc(F)cc23)NC(=O)CNC(=O)[C@H](CCCCN)NC1=O` [Compound 177] (Ac-CKG[Trp(5-F)]WDHYPC-NH2; linker 1-10 via mXylylene): the IC50 was 21 to 50 µM.
As for `CC(=O)N[C@H]1CCC(=O)NCCC[C@@H](C(N)=O)NC(=O)[C@@H]2CCCN2C(=O)[C@H](Cc2ccc(O)cc2)NC(=O)[C@H](Cc2c[nH]cn2)NC(=O)[C@H](CC(=O)O)NC(=O)[C@H](Cc2c[nH]c3ccc(F)cc23)NC(=O)[C@H](Cc2c[nH]c3ccc(F)cc23)NC(=O)CNC(=O)[C@H](CCCCN)NC1=O` [Compound 179] (Ac-EKG[Trp(5-F)][Trp(5-F)]DHYP[Orn]-NH2; lactam 1-10), the 50% inhibitory concentration (IC50) is 1 to 12.1 µM.
Consider `NCCCC[C@@H]1NC(=O)CCCCn2cc(nn2)CC[C@@H](C(N)=O)NC(=O)[C@@H]2CCCN2C(=O)[C@H](Cc2ccc(O)cc2)NC(=O)[C@H](Cc2c[nH]cn2)NC(=O)[C@H](CC(=O)O)NC(=O)[C@H](Cc2c[nH]c3ccc(F)cc23)NC(=O)[C@H](Cc2c[nH]c3ccc(F)cc23)NC(=O)CNC1=O` [Compound 185], for which the IC50 fell in the range of 0.0001 to 0.1 µM.
As for `NCCCC[C@@H]1NC(=O)CCCn2cc(nn2)CC[C@@H](C(N)=O)NC(=O)[C@@H]2CCCN2C(=O)[C@H](Cc2ccc(O)cc2)NC(=O)[C@H](Cc2c[nH]cn2)NC(=O)[C@H](CC(=O)O)NC(=O)[C@H](Cc2c[nH]c3ccc(F)cc23)NC(=O)[C@H](Cc2c[nH]c3ccc(F)cc23)NC(=O)CNC1=O` [Compound 186], the IC50 was 0.1 to 1 µM.
On to `CN1CC(=O)N[C@H](C(N)=O)CSCc2cccc(c2)CSCCC(=O)N[C@@H](CCCCN)C(=O)NCC(=O)N[C@@H](Cc2c[nH]c3ccc(F)cc23)C(=O)N[C@@H](Cc2c[nH]c3ccc(F)cc23)C(=O)N[C@@H](CC(=O)O)C(=O)N[C@@H](Cc2cnc[nH]2)C(=O)N[C@@H](Cc2ccc(O)cc2)C1=O` [Compound 194] ([Mpa]KG[Trp(5-F)][Trp(5-F)]DHY[Sar]C-NH2; linker 1-10 via mXylylene), for which the half-maximal inhibitory concentration (IC50) lay within 21 to 50 µM.
For the compound `NCCCC[C@@H]1NC(=O)CCSCc2cccc(c2)CSC[C@@H](C(N)=O)NC(=O)C2(CC2)NC(=O)[C@H](Cc2ccc(O)cc2)NC(=O)[C@H](Cc2c[nH]cn2)NC(=O)[C@H](CC(=O)O)NC(=O)[C@H](Cc2c[nH]c3ccc(F)cc23)NC(=O)[C@H](Cc2c[nH]c3ccc(F)cc23)NC(=O)CNC1=O` [Compound 195] ([Mpa]KG[Trp(5-F)][Trp(5-F)]DHY[Ac3c]C-NH2; linker 1-10 via mXylylene), the half-inhibitory concentration (IC50) was 21 to 50 µM.

Values taken from patent US11530244B2, “Cyclic polypeptides for PCSK9 inhibition” (priority 2018, dated 2022).
